Results from patent US6741954B2, “Selection method for odorants” (Symrise GmbH & Co. KG, priority 2000, dated 2004).
Where two headings read alike, the source gives them in different places.

What was measured:
Format in all cases: physicochemical
[1] = Headspace above the washing powder: relative partition parameter (SPME-GC)
Description: (§1) The procedure is analogous in all examples.
The example reflects the scent impression, which is perceived from a freshly opened pack of laundry detergent. The mixture of 39 odorants is incorporated in the above-mentioned washing powder in an amount of 0.5%. 20 g of the washing powder are transferred to a 100 ml Erlenmeyer flask sealed with a septum. The headspace above the shampoo is extracted using a SPME over 15 min. […] The analytical results are then used mathematically as described above.

[2] = Headspace above the wet washed hair: relative partition parameter headspace/shampoo (SPME-GC)
Description: as §1
The example reflects the scent impression, which is perceived from freshly washed hair. The shampoo is prepared as is generally customary. The mixture of 39 odorants is incorporated into the above-mentioned shampoo (1st) in an amount of 1%. A hair tress (2.5 g) is washed in 100 ml of a 20% shampoo solution in water by immersing 5-10 times and stirring, and then rinsed in 100 ml of clear water by immersing it three times. The hair tress is carefully patted with thin cellulose. The moist hair tress is transferred to a 100 ml Erlenmeyer flask sealed with a septum and left to stand for 3 h. The headspace above the washed and rinsed hair tress is extracted over 15 min using solid phase microextraction (SPME). The SPME needle is desorbed in a GC injector, and a gas chromatogram is recorded. […] The analytical results are then used mathematically as described above.

[3] = Headspace above the solution of WC scented block cleaner: relative partition parameter (SPME-GC); details: log of amount in headspace above 1% solution in water relative to amount in WC block; 1% odorant mixture, SPME 15 min
Description: as §1
The example reflects the scent impression, which is perceived from a WC scented block cleaner. The mixture of 39 odorants is incorporated into the toilet block in an amount of 1%. A 1% solution of the toilet block in water is prepared. 20 ml of this solution are transferred to a 100 ml Erlenmeyer flask sealed with a septum. The headspace above the shampoo is extracted by means of a SPME over 15 min. […] The analytical results are then used mathematically as described above.

[4] = Headspace above the soap bar: relative partition parameter (SPME-GC)
Description: as §1
The example reflects the scent impression, which is perceived from a fresh bar of soap. […] 20 g of the grated soap are transferred to a 100 ml Erlenmeyer flask sealed with a septum. The headspace above the shampoo is extracted using a SPME over 15 min. […] The analytical results are then used mathematically as described above.

[5] = Headspace above the shampoo: relative partition parameter (SPME-GC); details: log of amount in headspace relative to amount in shampoo; 1% odorant mixture, SPME 15 min
Description: as §1
The example reflects the scent impression, which is perceived from a freshly opened bottle of shampoo. The mixture of 39 odorants is incorporated into the above-mentioned shampoo (1) in an amount of 1%. 20 g of the shampoo are transferred to a 100 ml Erlenmeyer flask sealed with a septum. The headspace above the shampoo is extracted using a SPME over 15 min. […] The analytical results are then used mathematically as described above.

[6] = Headspace above the fresh gel room air freshener: relative partition parameter (SPME-GC); details: log of amount in headspace relative to amount in gel; 5% odorant mixture, 10 liter vessel, 1 h, SPME 15 min
Description: as §1
The example reflects the scent impression, which is perceived above a fresh gel room air freshener. The mixture of 39 odorants is incorporated into an air freshener in an amount of 5%. 100 g of the air freshener are placed in its customary presentation form in a large sealed 10 liter vessel. The air freshener is left to stand for one hour. The headspace above the air freshener is extracted using a SPME over 15 min. […] The analytical results are then used mathematically as described above.

[7] = Headspace above the candle wax: relative partition parameter (SPME-GC); details: log of amount in headspace relative to amount in candle wax; 5% odorant mixture, grated nonburning candle, SPME 15 min
Description: as §1
The example reflects the scent impression, which is perceived from a nonburning candle. The mixture of 39 odorants is incorporated into a candle in an amount of 5%. 20 g of the grated candle are transferred to a 100 ml Erlenmeyer flask sealed with a septum. The headspace above the candle is extracted using a SPME over 15 min. […] The analytical results are then used mathematically as described above.

[8] = log of amount in headspace relative to amount in washing powder, 0.5% odorant mixture, SPME 15 min
[9] = log of amount in headspace above wet washed hair relative to amount in shampoo, 1% odorant mixture, 3 h standing, SPME 15 min
[10] = log of amount in headspace relative to amount in soap, 1.2% odorant mixture, grated soap, SPME 15 min

Activity (logarithmic partition parameter above washing powder) [1, 8] | Activity (logarithmic partition parameter above wet hair) [2, 9] | Activity (logarithmic partition parameter above dissolved WC scented block cleaners) [3] | Activity (logarithmic partition parameter above soap) [4, 10] | Activity (logarithmic partition parameter above shampoo) [5] | Activity (logarithmic partition parameter above gel room air fresheners) [6] | Activity (logarithmic partition parameter above candle wax) [7] | Compound | Activity (logarithmic partition parameter above washing powder) [1] | Activity (logarithmic partition parameter above wet hair) [2] | Activity (logarithmic partition parameter above soap) [4]
−1.448 | −2.089 | −1.400 | −1.331 | −1.900 | −1.548 | −2.105 | CC(C=O)Cc1ccc(C(C)(C)C)cc1 (stereo not shown) [Lilial] |  |  | 
0.057 | −1.119 | −1.299 | −0.028 | −0.511 | 0.376 | −0.420 | C=CC(C)(O)CCC=C(C)C (stereo not shown) [Linalool] |  |  | 
0.377 | −0.776 | −1.833 | 0.395 | 0.769 | −0.273 | 0.819 | CC1=CCC2CC1C2(C)C (stereo not drawn) [alpha-Pinene] |  |  | 
0.415 | −0.647 | −1.682 | 0.469 | 0.830 | −0.090 | 0.701 | C=C1CCC2CC1C2(C)C (stereo not drawn) [beta-Pinene] |  |  | 
0.771 | −0.074 | −1.230 | 0.819 | 1.009 | 0.126 | 0.342 | CC1=CCC(C(C)C)=CC1 [gamma-Terpinene] |  |  | 

Further lines, the compound ahead of its results:

Compound | Activity (logarithmic partition parameter above washing powder) [1, 8] | Activity (logarithmic partition parameter above wet hair) [2, 9] | Activity (logarithmic partition parameter above dissolved WC scented block cleaners) [3] | Activity (logarithmic partition parameter above soap) [4, 10] | Activity (logarithmic partition parameter above shampoo) [5] | Activity (logarithmic partition parameter above gel room air fresheners) [6] | Activity (logarithmic partition parameter above candle wax) [7] | Activity (logarithmic partition parameter above washing powder) [1] | Activity (logarithmic partition parameter above wet hair) [2] | Activity (logarithmic partition parameter above soap) [4]
OCCc1ccccc1 [PEA, phenylethyl alcohol] | −0.176 | −1.349 | −1.636 | 0.170 | −0.742 | 0.245 | −0.632 |  |  | 
CC(=O)OCC=C(C)C [Prenyl acetate] | 1.167 | −0.299 | −1.070 | 1.180 | 0.844 | 0.674 | 0.726 |  |  | 
CC(=O)OC(C)c1ccccc1 (stereo not shown) [Styrolyl acetate] | 0.246 | −1.029 | −1.320 | 0.486 | −0.232 | 0.568 | −0.341 |  |  | 
CC(=O)OC(C)(C)C1CC=C(C)CC1 (stereo not shown) [Terpinyl acetate] |  |  | −0.524 |  | −0.561 | −0.029 | −0.979 | −0.196 | −1.135 | −0.253
Caryophyllene |  |  | −0.390 |  | −0.279 | −0.011 | −1.062 | −0.385 | −1.080 | −0.150
